Publication PMC3050703 (Cancer chemotherapy and pharmacology, 2010)
Read-outs that look alike come from different tables or passages of the source.

Key:
[1] = Plasma pharmacokinetics in patients; assay type: in vivo, human; conditions: for clearance / half-life / Vd / Cmax: human, plasma, intravenous
advanced solid tumors = test: Anti-tumor activity per RECIST in patients; assay type: in vivo, human
Aurora kinase A = conditions: read-out: Ki Aurora kinase A; ref [3]; cited from earlier work
Abl = conditions: read-out: Ki Abl; ref [3]; cited from earlier work
T315I mutant Abl kinase = conditions: read-out: Ki T315I mutant Abl; ref [3]; cited from earlier work
MCF-7 cells = conditions: read-out: IC50 proliferation of transformed MCF-7 cells; ref [1]; cited from earlier work
[2] = tested on: xenografts of leukemia, pancreatic cancer, and colon cancer; conditions: ref [1]; cited from earlier work
HCT116 colon cancer = conditions: ref [1], cited from earlier work
[3] = Dose Level 1 (4 mg/m^2/hr), N=1, any cycle, regardless of attribution
[4] = Dose Level 2 (8 mg/m^2/hr), N=2, any cycle, regardless of attribution
[5] = Dose Level 3 (16 mg/m^2/hr), N=2, any cycle, regardless of attribution
[6] = Dose Level 4 (32 mg/m^2/hr), N=3, any cycle, regardless of attribution
[7] = Dose Level 5 (45 mg/m^2/hr), N=4, any cycle, regardless of attribution
[8] = Dose Level 6 (64 mg/m^2/hr), N=2, any cycle
[9] = Dose Level 6 (64 mg/m^2/hr), N=2, any cycle, regardless of attribution
[10] = Dose Level 6 (oral 100 mg) (64 mg/m^2/hr), N=7, any cycle
[11] = Dose Level 6 (oral 100 mg) (64 mg/m^2/hr), N=7, any cycle, regardless of attribution
[12] = Dose Level 7 (96 mg/m^2/hr), N=6, any cycle
[13] = Dose Level 7 (96 mg/m^2/hr), N=6, any cycle, regardless of attribution

SMILES: Cc1cc(Nc2cc(N3CCN(C)CC3)nc(Sc3ccc(NC(=O)C4CC4)cc3)n2)[nH]n1 [MK-0457]
- Total AUC ([1]; 24-hour CIV 16 mg/m^2/hr, N=1, cycle 1): 18.8 µM·h
- dose-adjusted AUC (average) ([1]; 24-hour CIV infusion): 0.0315 µM·h/mg
- clearance [1]: 900 to 2320 mL/min
- half-life [1]: 6.6 to 10.2 h
- Vd ([1]; 8 mg/m2): 735 L
- clearance ([1]; 8 mg/m2): 2320 mL/min
- half-life ([1]; 8 mg/m2): 9.3 h
- Cmax ([1]; 8 mg/m^2/hr): 274 nM
- Vd ([1]; 16 mg/m2): 514 L
- clearance ([1]; 16 mg/m2): 1690 mL/min
- half-life ([1]; 16 mg/m2): 8.5 h
- Cmax ([1]; 16 mg/m^2/hr): 911 nM
- Vd ([1]; 32 mg/m2): 328 L
- clearance ([1]; 32 mg/m2): 1160 mL/min
- half-life ([1]; 32 mg/m2): 10.2 h
- Cmax ([1]; 32 mg/m^2/hr): 2170 nM
- Vd ([1]; 45 mg/m2): 429 L
- clearance ([1]; 45 mg/m2): 1390 mL/min
- half-life ([1]; 45 mg/m2): 10.2 h
- Cmax ([1]; 45 mg/m^2/hr): 2670 nM
- Vd ([1]; 64 mg/m2): 301 L
- clearance ([1]; 64 mg/m2): 1270 mL/min
- half-life ([1]; 64 mg/m2): 8 h
- Cmax ([1]; 64 mg/m^2/hr): 4010 nM
- Vd ([1]; 96 mg/m2): 248 L
- clearance ([1]; 96 mg/m2): 893 mL/min
- half-life ([1]; 96 mg/m2): 6.6 h
- Cmax ([1]; 96 mg/m^2/hr): 7640 nM
- objective anti-tumor responses (RECIST) (advanced solid tumors; all dose levels): no objective anti-tumor responses
- patients with stable disease (2 or more cycles without progression) (advanced solid tumors; all dose levels): 12 patients
- dose limiting toxicity (96 mg/m^2/hr 24-hour CIV infusion (dose level 7)): grade 4 neutropenia and grade 3 herpes zoster
- maximum tolerated dose (MTD) (24-hour CIV infusion every 21 days, patients with advanced solid tumors): 64 mg/m^2/hr
- number of patients with Fatigue Grade 2 [3]: 1
- number of patients with Nausea Grade 3 [3]: 1
- number of patients with Vomiting Grade 3 [3]: 1
- number of patients with Arthralgia Grade 2 [4]: 1
- number of patients with Back pain Grade 2 [4]: 1
- number of patients with Fatigue Grade 2 [4]: 1
- number of patients with Hypoalbuminemia Grade 2 [4]: 1
- number of patients with Increased alk phos (alkaline phosphatase) Grade 2 [4]: 1
- number of patients with Urinary tract infection Grade 2 [4]: 1
- number of patients with Diarrhea Grade 2 [5]: 1
- number of patients with Nausea Grade 3 [5]: 1
- number of patients with Vomiting Grade 3 [5]: 1
- number of patients with Arthralgia Grade 2 [6]: 1
- number of patients with Diarrhea Grade 2 [6]: 1
- number of patients with Fatigue Grade 2 [6]: 1
- number of patients with Nausea Grade 2 [6]: 1
- number of patients with Vomiting (printed on the heading line, no grade) [6]: 1
- number of patients with Neutropenia Grade 3 (Dose Level 5 (45 mg/m^2/hr), N=4, any cycle): 1
- number of patients with Back pain Grade 2 [7]: 1
- number of patients with Dyspnea Grade 2 [7]: 1
- number of patients with Fatigue Grade 2 [7]: 2
- number of patients with Hypophosphatemia Grade 3 [7]: 1
- number of patients with Nausea Grade 2 [7]: 1
- number of patients with Vomiting (printed on the heading line, no grade) [7]: 1
- number of patients with Leukopenia Grade 3 [8]: 1
- number of patients with Neutropenia Grade 3 [8]: 1
- number of patients with Arthralgia Grade 2 [9]: 1
- number of patients with Fatigue Grade 3 [9]: 1
- number of patients with Hyperglycemia Grade 3 [9]: 1
- number of patients with Hypoalbuminemia Grade 2 [9]: 1
- number of patients with Hypophosphatemia Grade 2 [9]: 1
- number of patients with Urinary tract infection Grade 2 [9]: 1
- number of patients with Leukopenia Grade 3 [10]: 1
- number of patients with Neutropenia Grade 3 [10]: 1
- number of patients with Arthralgia Grade 4 [11]: 1
- number of patients with Back pain Grade 2 [11]: 1
- number of patients with Diarrhea Grade 3 [11]: 2
- number of patients with Dyspnea Grade 2 [11]: 2
- number of patients with Fatigue Grade 2 [11]: 5
- number of patients with Hyperglycemia Grade 2 [11]: 1
- number of patients with Hyperglycemia Grade 3 [11]: 1
- number of patients with Hypoalbuminemia Grade 2 [11]: 1
- number of patients with Hypophosphatemia Grade 2 [11]: 2
- number of patients with Hypophosphatemia Grade 3 [11]: 1
- number of patients with Nausea Grade 2 [11]: 2
- number of patients with Urinary tract infection Grade 2 [11]: 1
- number of patients with Vomiting Grade 3 [11]: 2
- number of patients with Anemia Grade 3 [12]: 1
- number of patients with Leukopenia Grade 3 [12]: 3
- number of patients with Neutropenia Grade 3 [12]: 1
- number of patients with Neutropenia Grade 4 [12]: 1
- number of patients with Diarrhea Grade 2 [13]: 1
- number of patients with Dyspnea Grade 3 [13]: 1
- number of patients with Fatigue Grade 2 [13]: 3
- number of patients with Hypoalbuminemia Grade 3 [13]: 1
- number of patients with Increased alk phos (alkaline phosphatase) Grade 2 [13]: 1
- number of patients with Urinary tract infection Grade 2 [13]: 1
- prolongation of the QTc (ECG pre-dose and after 24-hour infusion, cycle 1): not observed
- febrile neutropenia (all dose levels, any cycle): no cases
- patients with dose reduced due to toxicity (of 27 patients (11%)): Three
- patients with treatment delayed or dose reduced due to toxicity (of 27 patients (15%)): 4 patients
- patients with serious adverse events regardless of attribution (of 27 patients (33%), all dose levels): 9 patients
- deaths on study or within 30 days of follow-up (patients who received MK-0457): no deaths
- adverse events at least possibly related to study drug after oral dose (single 100 mg capsule, between oral dose and start of CIV infusion, 7 patients): No adverse events
- Ki (Abl): 30 nM
- Ki (T315I mutant Abl kinase): 42 nM
- IC50 (MCF-7 cells): 15 to 113 nM
- tumor response in nude mice xenografts [2]: marked tumor regression
- marked tumor regression, number of HCT116 nude rat models (HCT116 colon cancer): 4 of 7
